Measured values taken from ChEMBL document CHEMBL4476868, “Benzimidazole derivatives and uses thereof” (2017).

Each compound was assayed against Acetyl-coenzyme A synthetase, cytoplasmic (Homo sapiens, UniProt Q9NR19) (assay: Inhibition of N-terminal 6x-histidine tagged human ACSS2 expressed in insect cells assessed as reduction in pyrophosphate production using CoA and ATP incubated for 30 mins by pyrophosphatase coupled enzymatic assay).
Chain of Acetyl-coenzyme A synthetase, cytoplasmic (Q9NR19 whole entry): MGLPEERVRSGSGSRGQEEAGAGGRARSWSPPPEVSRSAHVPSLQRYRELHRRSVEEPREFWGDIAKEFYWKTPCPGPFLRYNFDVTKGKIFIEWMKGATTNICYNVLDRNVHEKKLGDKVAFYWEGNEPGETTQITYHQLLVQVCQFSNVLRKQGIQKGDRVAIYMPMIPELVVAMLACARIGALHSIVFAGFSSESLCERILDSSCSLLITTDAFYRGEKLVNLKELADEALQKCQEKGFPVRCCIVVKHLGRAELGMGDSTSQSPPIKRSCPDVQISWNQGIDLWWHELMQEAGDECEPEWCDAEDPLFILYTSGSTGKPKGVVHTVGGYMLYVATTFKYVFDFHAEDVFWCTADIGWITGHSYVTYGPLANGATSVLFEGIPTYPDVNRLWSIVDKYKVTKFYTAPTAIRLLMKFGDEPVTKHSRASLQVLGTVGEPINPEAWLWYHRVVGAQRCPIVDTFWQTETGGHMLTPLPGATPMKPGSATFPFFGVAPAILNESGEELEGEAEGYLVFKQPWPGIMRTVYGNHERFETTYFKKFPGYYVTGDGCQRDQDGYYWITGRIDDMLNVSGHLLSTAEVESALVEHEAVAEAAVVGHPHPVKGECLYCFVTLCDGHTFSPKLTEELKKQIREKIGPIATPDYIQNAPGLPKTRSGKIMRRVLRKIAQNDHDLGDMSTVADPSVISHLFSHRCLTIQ

IC50 [nM] | SMILES
> 1000 | COc1ccc(C(O)(c2ccccc2)c2nc3ccc(C)cc3n2C)cn1 (configuration not stated)
> 1000 | CCn1c(C(O)(c2ccccc2)c2ccccc2)nc2ccc(C3(O)CCC3)cc21
> 1000 | C[C@@H](O)CNC(=O)c1ccc2nc(C(O)(c3ccccc3)c3ccccc3)n(C3CCNCC3)c2c1
> 1000 | CNC(=O)c1cccc(C(O)(c2ccccc2)c2nc3ccc(Cl)cc3n2C)c1 (configuration not stated)
> 1000 | C[C@@H](O)CNC(=O)c1ccc2nc(C(c3ccccc3)c3ccccc3)[nH]c2c1
> 1000 | Cn1c(C(O)(c2ccccc2)c2cccc(C(=O)NCCO)c2)nc2ccc(Cl)cc21 (configuration not stated)
> 1000 | CCCc1ccc2nc(C(O)(c3ccccc3)c3ccccc3)n(CC)c2c1
> 1000 | CCn1c(C(O)(c2ccccc2)c2ccccc2)nc2ccc(C(=O)N3CCC(N)C3)cc21 (configuration not stated)
> 1000 | CCn1c(C(O)(c2ccccc2)c2ccccc2)nc2ccc(C3(O)CCOCC3)cc21
> 1000 | C[C@@H](O)CNC(=O)c1ccc2nc(C(O)(c3ccccc3)c3ccccc3)n(C3CCNC3)c2c1 (some centres not stated)
> 1000 | CCn1c(C(O)(c2ccccc2)c2cccc(-c3ncco3)c2)nc2ccc(C(=O)NC)cc21 (configuration not stated)
> 1000 | Cn1c(C(O)(c2ccccc2)c2ccc(Cl)cc2)nc2ccc(C#N)cc21 (configuration not stated)
> 1000 | CCn1c(C(c2ccccc2)c2ccccc2)nc2ccc(C(=O)NC)cc21
> 1000 | Cc1ccc2nc(C(O)(c3ccccc3)c3ncccc3C)n(C)c2c1 (configuration not stated)
> 1000 | C[C@@H](O)CNC(=O)c1ccc2nc(C(O)(c3ccccc3)c3ccccc3)n(C3CCOCC3)c2c1
> 1000 | CCn1c(C(O)(c2ccc(F)cc2F)c2ncccc2C)nc2ccc(CCCO)cc21 (configuration not stated)
> 1000 | COCCNC(=O)c1cccc(C(O)(c2ccccc2)c2nc3ccc(Cl)cc3n2C)c1 (configuration not stated)
> 1000 | CN(C)C(=O)c1cccc(C(O)(c2ccccc2)c2nc3ccc(Cl)cc3n2C)c1 (configuration not stated)
> 1000 | Cc1ccc2nc(C(O)(c3ccccc3)c3cccc(=O)n3C)n(C)c2c1 (configuration not stated)
> 1000 | C[C@@H](O)CNC(=O)c1ccc2nc(C(O)(c3ccccc3)c3ccccc3)n(CC3CCOCC3)c2c1
> 1000 | CNC(=O)c1ccc2nc(C(c3ccccc3)c3ccccc3)[nH]c2c1
> 1000 | Cc1ccc2nc(C(O)(c3ccccc3)c3ncccc3F)n(C)c2c1 (configuration not stated)
> 1000 | Cc1cccc2c1nc(C(O)(c1ccccc1)c1ccccc1)n2C
> 1000 | CCn1ccc(NC(=O)c2ccc3nc(C(O)(c4ccccc4)c4ccccc4)n(CC)c3c2)n1
> 1000 | CCNC(=O)c1cccc(C(O)(c2ccccc2)c2nc3ccc(Cl)cc3n2C)c1 (configuration not stated)
> 1000 | Cc1ccc2nc(C(O)(c3ccccc3)c3ccn(C)c(=O)c3)n(C)c2c1 (configuration not stated)
> 1000 | CCn1c(C(O)(c2ccccc2)c2ccccc2)nc2ccc(C3(O)CCOC3)cc21 (configuration not stated)
